According to ChEMBL document CHEMBL1759964, “Structure-based virtual screening approach to the discovery of phosphoinositide 3-kinase alpha inhibitors” (Bioorg Med Chem Lett, 2011):

Biological target: Phosphatidylinositol 4,5-bisphosphate 3-kinase catalytic subunit alpha isoform (Homo sapiens, UniProt P42336)
Test: Inhibition of PI3Kalpha

Sequence of Phosphatidylinositol 4,5-bisphosphate 3-kinase catalytic subunit alpha isoform (P42336 whole entry, canonical isoform): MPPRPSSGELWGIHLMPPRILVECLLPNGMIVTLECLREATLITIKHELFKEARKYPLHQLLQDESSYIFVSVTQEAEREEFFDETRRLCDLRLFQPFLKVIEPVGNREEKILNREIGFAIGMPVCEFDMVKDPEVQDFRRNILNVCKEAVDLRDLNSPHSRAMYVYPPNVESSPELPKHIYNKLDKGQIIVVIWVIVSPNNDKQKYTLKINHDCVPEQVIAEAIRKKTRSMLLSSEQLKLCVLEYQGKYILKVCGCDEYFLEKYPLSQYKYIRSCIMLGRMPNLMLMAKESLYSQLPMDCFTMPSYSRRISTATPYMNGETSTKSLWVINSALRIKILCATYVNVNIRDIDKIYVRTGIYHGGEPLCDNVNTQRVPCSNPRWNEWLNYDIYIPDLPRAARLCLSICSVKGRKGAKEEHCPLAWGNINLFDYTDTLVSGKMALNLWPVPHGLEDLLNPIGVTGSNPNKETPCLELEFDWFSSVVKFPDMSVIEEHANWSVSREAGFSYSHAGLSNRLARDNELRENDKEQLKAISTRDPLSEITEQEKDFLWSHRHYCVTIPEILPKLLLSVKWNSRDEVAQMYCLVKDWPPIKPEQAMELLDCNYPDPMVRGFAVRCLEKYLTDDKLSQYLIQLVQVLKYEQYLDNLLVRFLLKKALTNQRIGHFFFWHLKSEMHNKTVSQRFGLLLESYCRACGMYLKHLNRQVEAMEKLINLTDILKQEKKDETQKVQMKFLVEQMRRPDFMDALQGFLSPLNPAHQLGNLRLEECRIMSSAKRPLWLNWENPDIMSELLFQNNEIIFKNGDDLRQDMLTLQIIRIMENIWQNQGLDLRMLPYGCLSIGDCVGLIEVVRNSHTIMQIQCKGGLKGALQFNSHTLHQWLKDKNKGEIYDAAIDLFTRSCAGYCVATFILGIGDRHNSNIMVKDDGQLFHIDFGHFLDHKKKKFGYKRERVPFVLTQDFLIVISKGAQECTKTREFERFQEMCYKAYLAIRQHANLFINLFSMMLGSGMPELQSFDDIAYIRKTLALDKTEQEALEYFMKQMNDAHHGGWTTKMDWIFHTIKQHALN

| IC50 | Compound |
| --- | --- |
| 23 µM | Cc1nc(N/C(N)=N/C(=O)c2ccccc2N)nc2ccccc12 |
| 28 µM | Cc1cccc(NC(=O)c2ccc(Cn3cnc4ccccc4c3=O)o2)n1 |
| 40 µM | Cc1ccc(OCC(=O)Nc2ccc(-c3nnc(-c4ccco4)o3)cc2)cc1 |
| 40 µM | CCOc1ccc2nc3cc(/N=C/c4ccco4)ccc3c(N)c2c1 |
